These results are taken from US5922691A, “Crystalline maltotetraosyl glucoside, and its production and use” (Kabushiki Kaisha Hayashibara Seibutsu Kagaku Kenkyujo, priority 1994, dated 1999).

The nature of data set [1]: Hygroscopicity when allowed to stand in a room. The class given is physicochemical. Particulars: for Hygroscopicity: allowed to stand in a room. The method, then: Fifty parts by weight of 98% maltopentaose, a product commercialized by Hayashibara Biochemical Laboratories, Inc., Okayama, Japan, was dissolved in 200 parts by weight of water while heating and the resultant solution was heated to 40° C. and adjusted to pH 7.0, admixed with a non-reducing saccharide-forming enzyme prepared by the method in Experiment A-2 in an amount of 5 units/g maltopentaose, reacted for 24 hours and followed by heating at 100° C. for 20 minutes to inactivate the enzyme. The resultant solution contained about 90% maltotetraosyl glucoside, and the remains are maltopentaose. The solution was adjusted to 0.1N by adding sodium hydroxide, and heated at 100° C. for 2 hours to decompose reducing saccharides. The solution was decolored with activated carbon and desalted with ion-exchange resins (H^+ and OH^- form) to obtain 98% maltotetraosyl glucoside fraction. The fractions were pooled and the solution was concentrated to give a concentration of 60%, placed in a crystallizer and admixed with a crystalline maltotetraosyl glucoside in an amount of 2% as a seed crystal, and the resultant mixture is cooled gradually while stirring for crystallization to form a massecuit. The massecuit thus obtained was separated from molasses to obtain 99.9% hydrous crystalline maltotetraosyl glucoside in the yield against starting material of about 50%.
The anhydrous crystalline maltotetraosyl glucoside can be favorably used as hygroscopic agent, dehydrating agent and chemical raw material, and further utilizable in a variety of compositions including foods, beverages, cosmetics, pharmaceuticals and shaped bodies, similar to hydrous crystalline maltotetraosyl glucoside in Example A-1.

Data set [2] can be described thus: Reducing power by the Somogyi-Nelson method, represented by DE. The class given is physicochemical. Conditions: high-purity lyophilized saccharide preparations. The method, then: These high-purity saccharide preparations were tested for reducing power with the Somogyi-Nelson method and their reducing powers were represented by DE (dextrose equivalent).
The nature of the next data set: Solubility in water. Format: physicochemical. Conditions: in 100 ml of 25° C. water; read-out: Solubility (as anhydride). The method, then:
(8) Solubility (as anhydride)
Up to about 1 g each hydrous or anhydrous crystal was soluble in 100 ml of 25° C. water.

A short description of data set [3]: Acute toxicity in mice upon oral administration. Format: in vivo. Conditions: mouse, in vivo, oral administration. The method, then: (§1) Hydrous and anhydrous crystalline maltotetraosyl glucosides prepared by the method in Experiment B-1 were tested for acute toxicity in mice upon oral administration.
In another data set the test system is mice. Kind of data set: Acute toxicity in mice upon oral administration. The class given is in vivo. Particulars: oral, maximum administrable doses. The method, then:
as §1

Values after ≈ are worked out from the molar mass of the structure shown.

`OC[C@H]1O[C@H](O[C@H]2O[C@H](CO)[C@@H](O[C@H]3O[C@H](CO)[C@@H](O[C@H]4O[C@H](CO)[C@@H](O[C@H]5O[C@H](CO)[C@@H](O)[C@H](O)[C@H]5O)[C@H](O)[C@H]4O)[C@H](O)[C@H]3O)[C@H](O)[C@H]2O)[C@H](O)[C@@H](O)[C@@H]1O` [Example A-1, maltotetraosyl glucoside]: in data set [1], the Hygroscopicity result is recorded as “no hygroscopicity”.

In the case of `OC[C@H]1O[C@H](O[C@H]2O[C@H](CO)[C@@H](O[C@H]3O[C@H](CO)[C@@H](O[C@H]4O[C@H](CO)[C@@H](O[C@H]5O[C@H](CO)[C@@H](O)[C@H](O)[C@H]5O)[C@H](O)[C@H]4O)[C@H](O)[C@H]3O)[C@H](O)[C@H]2O)[C@H](O)[C@@H](O)[C@@H]1O` [PIII, α-maltotriosyl trehalose (or α-maltotetraosyl glucoside)], the “DE (dextrose equivalent), reducing power” value in data set [2] worked out at 0.10.

For `OC[C@H]1O[C@H](O[C@H]2O[C@H](CO)[C@@H](O[C@H]3O[C@H](CO)[C@@H](O[C@H]4O[C@H](CO)[C@@H](O[C@H]5O[C@H](CO)[C@@H](O)[C@H](O)[C@H]5O)[C@H](O)[C@H]4O)[C@H](O)[C@H]3O)[C@H](O)[C@H]2O)[C@H](O)[C@@H](O)[C@@H]1O` [Example A-2, maltotetraosyl glucoside], in data set [1], the Hygroscopicity entry is “substantially no hygroscopicity”.

With `OC[C@H]1O[C@H](O[C@H]2O[C@H](CO)[C@@H](O[C@H]3O[C@H](CO)[C@@H](O[C@H]4O[C@H](CO)[C@@H](O[C@H]5O[C@H](CO)[C@@H](O[C@H]6O[C@H](CO)[C@@H](O)[C@H](O)[C@H]6O)[C@H](O)[C@H]5O)[C@H](O)[C@H]4O)[C@H](O)[C@H]3O)[C@H](O)[C@H]2O)[C@H](O)[C@@H](O)[C@@H]1O` [PIV, α-maltotetraosyl trehalose (or α-maltopentaosyl glucoside)], the “DE (dextrose equivalent), reducing power” value in data set [2] came to 0.27.

As to `OC[C@H]1O[C@H](O[C@H]2O[C@H](CO)[C@@H](O[C@H]3O[C@H](CO)[C@@H](O[C@H]4O[C@H](CO)[C@@H](O[C@H]5O[C@H](CO)[C@@H](O[C@H]6O[C@H](CO)[C@@H](O[C@H]7O[C@H](CO)[C@@H](O)[C@H](O)[C@H]7O)[C@H](O)[C@H]6O)[C@H](O)[C@H]5O)[C@H](O)[C@H]4O)[C@H](O)[C@H]3O)[C@H](O)[C@H]2O)[C@H](O)[C@@H](O)[C@@H]1O` [PV, α-maltopentaosyl trehalose (or α-maltohexaosyl glucoside)], the “DE (dextrose equivalent), reducing power” value in data set [2] is 0.23.

Turning to `OC[C@H]1O[C@H](O[C@H]2O[C@H](CO)[C@@H](O[C@H]3O[C@H](CO)[C@@H](O)[C@H](O)[C@H]3O)[C@H](O)[C@H]2O)[C@H](O)[C@@H](O)[C@@H]1O` [PI, α-glucosyl trehalose (or α-maltosyl glucoside)], the “DE (dextrose equivalent), reducing power” value in data set [2] was 0.83.

Regarding `OC[C@H]1O[C@H](O[C@H]2O[C@H](CO)[C@@H](O[C@H]3O[C@H](CO)[C@@H](O[C@H]4O[C@H](CO)[C@@H](O[C@H]5O[C@H](CO)[C@@H](O)[C@H](O)[C@H]5O)[C@H](O)[C@H]4O)[C@H](O)[C@H]3O)[C@H](O)[C@H]2O)[C@H](O)[C@@H](O)[C@@H]1O` [Example A-5, maltotetraosyl glucoside], in data set [1], the Hygroscopicity result is “substantially no hygroscopicity”.

What is called solubility is how much of the substance goes into solution per volume. Usually LD50 stands for the dose expected to kill half of the subjects tested. A high value points to lower toxicity. Regarding `OC[C@H]1O[C@H](O[C@H]2O[C@H](CO)[C@@H](O[C@H]3O[C@H](CO)[C@@H](O[C@H]4O[C@H](CO)[C@@H](O[C@H]5O[C@H](CO)[C@@H](O)[C@H](O)[C@H]5O)[C@H](O)[C@H]4O)[C@H](O)[C@H]3O)[C@H](O)[C@H]2O)[C@H](O)[C@@H](O)[C@@H]1O` [hydrous crystal, O-α-D-glucopyranosyl-(1→4)-O-α-D-glucopyranosyl-(1→4)-O-α-D-glucopyranosyl-(1→4)-α-D-glucopyranosyl α-D-glucopyranoside], the solubility in “Solubility in water” is about 10000 µg/mL (≈ 12.1 mM). The LD50 in data set [3] is at least 50000 mg/kg. In addition, the Mortality result with mice was “no mouse was died”.

Take `OC[C@H]1O[C@H](O[C@H]2O[C@H](CO)[C@@H](O[C@H]3O[C@H](CO)[C@@H](O[C@H]4O[C@H](CO)[C@@H](O)[C@H](O)[C@H]4O)[C@H](O)[C@H]3O)[C@H](O)[C@H]2O)[C@H](O)[C@@H](O)[C@@H]1O` [PII, α-maltosyl trehalose (or α-maltotriosyl glucoside)]: in data set [2], the “DE (dextrose equivalent), reducing power” value came out at 0.35.

Take `OC[C@H]1O[C@H](O[C@H]2O[C@H](CO)[C@@H](O[C@H]3O[C@H](CO)[C@@H](O[C@H]4O[C@H](CO)[C@@H](O[C@H]5O[C@H](CO)[C@@H](O)[C@H](O)[C@H]5O)[C@H](O)[C@H]4O)[C@H](O)[C@H]3O)[C@H](O)[C@H]2O)[C@H](O)[C@@H](O)[C@@H]1O` [Example A-3, maltotetraosyl glucoside]: the Hygroscopicity entry in data set [1] is “substantially no hygroscopicity”.

On to `OC[C@H]1O[C@H](O[C@H]2O[C@H](CO)[C@@H](O[C@H]3O[C@H](CO)[C@@H](O[C@H]4O[C@H](CO)[C@@H](O[C@H]5O[C@H](CO)[C@@H](O)[C@H](O)[C@H]5O)[C@H](O)[C@H]4O)[C@H](O)[C@H]3O)[C@H](O)[C@H]2O)[C@H](O)[C@@H](O)[C@@H]1O` [Example A-4, maltotetraosyl glucoside], for which the “Water content after standing in a room” value in data set [1] (after conversion into hydrous crystal) is listed as “about 4%”. Further, in data set [1], the Hygroscopicity result was “exhibited hygroscopicity”.
